Patent US10220048B2, “Compositions and methods for treating ocular diseases” (Aerpio Therapeutics, Inc., priority 2013, dated 2019)
Several values for one entry are separate records, joined by “and”; a condition that tells them apart may be missing. Equal values may be shown once. Entries after “also recorded” stand apart in the source; their conditions may differ.

Legend:
[1] = system: patients with diabetic macular edema; experiment: Central Foveal Thickness by ocular coherence tomography in diabetic macular edema patients given the disclosed compound subcutaneously plus intravitreal anti-VEGF agent; type: in vivo, human
Experimental: The disclosed Figures represent a control or baseline study used as a benchmark for determining the effectiveness of the disclosed methods for treating ocular diseases (FIGS. 1 and 3) and studies directed to the disclosed methods. Described herein below, four patients with visual acuity loss due to diabetic macular edema (central retinal thickness [CRT] of more than 325 microns and best corrected visual acuity less than 70 letters) were treated with subcutaneous injections of 5 mg of the disclosed compound twice a day for 28 days and then observed for an additional two months (days 28 through 84). At any time during the course of the study, investigators could administer additional therapy consisting of intravitreal injection of an anti-VEGF agent, for example, ranibizumab, bevacizumab and/or aflibercept if considered by the investigator to be medically necessary. Retinal thickness as measured by ocular coherence tomography and best corrected visual acuity as measured by a standard vision test were assessed at regular intervals during the 28 day active treatment phase and through the 2 month post-treatment observation phase, (Screening, Day 1 [baseline], Day 7, Day 14, Day 21, Day 28, Day 42, Day 56 and Day 84). The main efficacy outcomes for the study were change in CRT and visual acuity over time with treatment. FIG. 2 depicts the results of a study wherein 4 patients received 5 mg of the disclosed compound subcutaneously twice daily for 28 days and subsequently were treated in one or both eyes (7 eyes total) with either ranibizumab (0.3 or 0.5 mg) or aflibercept (2 mg) by intravitreal injection at the discretion of the study investigator. […] The mean change in Central Foveal Thickness was −289 μm, approximately double the reduction seen 7 days to one month after ranibizumab injection in the benchmark study as depicted in FIG. 1. FIG. 5 represents the results of a single patient. The eye having the greater Central Foveal Thickness is chosen as the Study Eye. The patient from day one was given 5 mg of the disclosed compound subcutaneously twice daily. At week 3 (21 days, indicated by arrow) the fellow eye is treated with 0.5 mg of ranibizumab. At week 6 (42 days, indicated by arrow) the treated eye is treated with 0.5 mg of ranibizumab. […] Without wishing to be limited by theory, it is believed that when the fellow eye is treated with an injection of 0.5 mg of ranibizumab, the ranibizumab enters the study eye systemically. […] At week 6, the study eye is treated with an intravitreal injection of 0.5 mg of ranibizumab. As depicted in FIG. 5, by week 8, there is an overall reduction in CFT of approximately 690 μm, wherein the CFT of the subject eye is approximately 180 μm. Although the Fellow Eye began with less CFT than the study eye, nevertheless, treatment with ranibizumab at week 3 (day 21) produced a change in CFT of approximately 430 μm. […] FIG. 6 represents the results of a single patient. The eye having the greater Central Foveal Thickness is chosen as the Treated Eye (Study Eye). The patient from day one was given 5 mg of the disclosed compound subcutaneously twice daily. At week 3 (21 days, indicated by arrow) the fellow eye is rescued with 2 mg of aflibercept. […] At week 6 (42 days, indicated by arrow) the treated eye is rescued with 2 mg of aflibercept. […] The disclosed Figures represent a control or baseline study used as a benchmark for determining the effectiveness of the disclosed methods for treating ocular diseases (FIGS. 1 and 3) and studies directed to the disclosed methods. Described herein below, four patients with visual acuity loss due to diabetic macular edema (central retinal thickness [CRT] of more than 325 microns and best corrected visual acuity less than 70 letters) were treated with subcutaneous injections of 5 mg of the disclosed compound twice a day for 28 days and then observed for an additional two months (days 28 through 84). […]

[2] = system: patients with diabetic macular edema; experiment: Best corrected visual acuity (letters) in diabetic macular edema patients given the disclosed compound subcutaneously plus intravitreal anti-VEGF agent; type: in vivo, human; conditions: 5 mg s.c. twice daily 28 days, then ranibizumab or aflibercept intravitreal; 14-28 days post anti-VEGF (FIG. 4)
Experimental: The disclosed Figures represent a control or baseline study used as a benchmark for determining the effectiveness of the disclosed methods for treating ocular diseases (FIGS. 1 and 3) and studies directed to the disclosed methods. Described herein below, four patients with visual acuity loss due to diabetic macular edema (central retinal thickness [CRT] of more than 325 microns and best corrected visual acuity less than 70 letters) were treated with subcutaneous injections of 5 mg of the disclosed compound twice a day for 28 days and then observed for an additional two months (days 28 through 84). At any time during the course of the study, investigators could administer additional therapy consisting of intravitreal injection of an anti-VEGF agent, for example, ranibizumab, bevacizumab and/or aflibercept if considered by the investigator to be medically necessary. Retinal thickness as measured by ocular coherence tomography and best corrected visual acuity as measured by a standard vision test were assessed at regular intervals during the 28 day active treatment phase and through the 2 month post-treatment observation phase, (Screening, Day 1 [baseline], Day 7, Day 14, Day 21, Day 28, Day 42, Day 56 and Day 84). The main efficacy outcomes for the study were change in CRT and visual acuity over time with treatment. […]

HPTP-β = HPTP-β (Homo sapiens (Human), UniProt P23467); experiment: HPTP-β inhibition (IC50); type: biochemical; conditions: read-out: HPTPβ IC50
[3] = single patient (FIG. 5), 5 mg s.c. twice daily, study eye given 0.5 mg ranibizumab at week 6
[4] = single patient, aflibercept protocol (FIG. 6)

HPTP-β, sequence (P23467 23-1997): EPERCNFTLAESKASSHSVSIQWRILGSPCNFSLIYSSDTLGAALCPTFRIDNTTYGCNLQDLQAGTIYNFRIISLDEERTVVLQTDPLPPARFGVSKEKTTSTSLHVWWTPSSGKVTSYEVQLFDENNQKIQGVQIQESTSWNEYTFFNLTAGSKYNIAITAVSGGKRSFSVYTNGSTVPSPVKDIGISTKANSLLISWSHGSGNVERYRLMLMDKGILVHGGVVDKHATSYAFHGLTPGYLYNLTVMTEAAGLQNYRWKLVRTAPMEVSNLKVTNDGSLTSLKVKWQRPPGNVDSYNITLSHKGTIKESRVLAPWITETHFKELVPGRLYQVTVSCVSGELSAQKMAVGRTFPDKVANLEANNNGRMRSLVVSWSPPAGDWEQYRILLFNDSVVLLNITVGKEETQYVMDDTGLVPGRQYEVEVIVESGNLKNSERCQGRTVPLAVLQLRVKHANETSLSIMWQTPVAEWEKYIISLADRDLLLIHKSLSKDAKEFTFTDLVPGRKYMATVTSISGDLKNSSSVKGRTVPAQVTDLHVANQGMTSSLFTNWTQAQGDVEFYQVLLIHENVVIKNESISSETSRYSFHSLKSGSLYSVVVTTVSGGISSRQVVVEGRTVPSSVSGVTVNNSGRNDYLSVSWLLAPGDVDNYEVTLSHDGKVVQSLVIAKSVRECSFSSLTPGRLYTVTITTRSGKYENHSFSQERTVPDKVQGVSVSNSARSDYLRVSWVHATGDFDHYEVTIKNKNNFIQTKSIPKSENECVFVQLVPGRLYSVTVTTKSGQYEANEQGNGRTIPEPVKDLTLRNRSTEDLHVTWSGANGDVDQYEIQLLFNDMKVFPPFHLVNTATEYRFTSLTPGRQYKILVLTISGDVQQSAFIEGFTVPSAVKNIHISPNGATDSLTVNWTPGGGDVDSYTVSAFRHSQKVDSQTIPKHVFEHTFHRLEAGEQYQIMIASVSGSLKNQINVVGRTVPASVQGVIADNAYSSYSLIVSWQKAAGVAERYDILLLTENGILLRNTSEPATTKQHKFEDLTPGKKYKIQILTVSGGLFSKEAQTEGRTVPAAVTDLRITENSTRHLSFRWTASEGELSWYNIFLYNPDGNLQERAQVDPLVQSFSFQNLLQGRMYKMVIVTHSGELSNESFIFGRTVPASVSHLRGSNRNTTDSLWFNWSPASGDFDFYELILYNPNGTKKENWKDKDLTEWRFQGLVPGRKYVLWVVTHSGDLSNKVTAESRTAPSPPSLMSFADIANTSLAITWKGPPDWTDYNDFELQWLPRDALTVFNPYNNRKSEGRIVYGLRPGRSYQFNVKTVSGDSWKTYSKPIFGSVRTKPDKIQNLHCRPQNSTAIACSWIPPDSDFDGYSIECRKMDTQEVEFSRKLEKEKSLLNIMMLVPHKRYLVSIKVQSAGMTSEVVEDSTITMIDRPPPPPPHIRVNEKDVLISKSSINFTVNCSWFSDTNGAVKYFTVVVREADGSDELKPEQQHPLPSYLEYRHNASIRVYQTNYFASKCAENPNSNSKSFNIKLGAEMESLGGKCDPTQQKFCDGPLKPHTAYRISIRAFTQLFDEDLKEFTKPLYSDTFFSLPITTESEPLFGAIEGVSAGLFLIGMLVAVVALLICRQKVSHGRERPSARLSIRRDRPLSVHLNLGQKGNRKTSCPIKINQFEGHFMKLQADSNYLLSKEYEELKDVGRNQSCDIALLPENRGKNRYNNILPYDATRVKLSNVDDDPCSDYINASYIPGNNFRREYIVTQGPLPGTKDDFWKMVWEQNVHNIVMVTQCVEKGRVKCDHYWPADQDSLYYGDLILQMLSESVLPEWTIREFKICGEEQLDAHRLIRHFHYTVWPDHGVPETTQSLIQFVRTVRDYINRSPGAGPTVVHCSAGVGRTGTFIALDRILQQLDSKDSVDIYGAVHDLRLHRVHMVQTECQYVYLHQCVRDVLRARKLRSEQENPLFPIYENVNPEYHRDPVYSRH

Row | Structure (SMILES) | Central Foveal Reduction, individual patient eye ([1]; 5 mg s.c. twice daily 28 days, then ranibizumab (0.3 or 0.5 mg) or aflibercept (2 mg) intravitreal, 14-28 days post anti-VEGF, 7 eyes (FIG. 2)) | mean change in Central Foveal Thickness ([1]; 5 mg s.c. twice daily 28 days, then ranibizumab or aflibercept intravitreal, 14-28 days post anti-VEGF, 7 eyes (FIG. 2)) [μm] | CFT reduction relative to reduction after ranibizumab in benchmark study ([1]; combination versus FIG. 1 benchmark) | CFT of study eye at week 6 ([1]; single patient (FIG. 5), 5 mg s.c. twice daily, before ranibizumab to study eye) | change in CFT, fellow eye, after ranibizumab at week 3 ([1]; single patient (FIG. 5), 5 mg s.c. twice daily, fellow eye given 0.5 mg ranibizumab at day 21, by week 4) | reduction in CFT, study eye, day 21 to day 28 ([1]; single patient (FIG. 5), 5 mg s.c. twice daily, fellow eye given 0.5 mg ranibizumab at week 3) | CFT of study eye at week 8 [1, 3] | overall reduction in CFT, study eye, by week 8 [1, 3] | CFT reduction, fellow eye, after rescue ([1]; single patient (FIG. 6), 5 mg s.c. twice daily, fellow eye rescued with 2 mg aflibercept) | CFT reduction, study eye, after rescue ([1]; single patient (FIG. 6), 5 mg s.c. twice daily, study eye rescued with 2 mg aflibercept at week 6) | reduction of CFT from onset of the study, non-treated eye [1, 4] [μm] | reduction of CFT from onset of the study, study eye [1, 4] | mean change in Visual Acuity [2] [letters] | IC50 (HPTP-β) [pM]
1 | COC(=O)N[C@@H](Cc1ccccc1)C(=O)N[C@@H](Cc1ccc(NS(=O)(=O)O)cc1)c1csc(-c2cccs2)n1 [the disclosed compound, 4-{(S)-2-[(S)-2-(methoxycarbonylamino)-3-phenylpropanamido]-2-[2-(thiophen-2-yl)thiazol-4-yl]ethyl}phenylsulfamic acid] | 50-100 μm and 150-200 μm and 200-250 μm and 300-350 μm and 350-400 μm and 450-500 μm | −289 | approximately double | approximately 775 μm | approximately 430 μm and 350 μm | approximately 300 μm; also recorded: approximately 250 μm | approximately 180 μm; also recorded: approximately 225 μm | approximately 690 μm; also recorded: approximately 500 μm | approximately 400 μm | approximately 310 μm; also recorded: approximately 300 μm | ~280 | approximately 300 μm | 9 | 
2 | COC(=O)N[C@@H](Cc1ccccc1)C(=O)N[C@@H](Cc1ccc(NS(=O)(=O)O)cc1)c1nc(-c2ccccc2)cs1 [AA21, 4-{(S)-2-[(S)-2-(Methoxycarbonylamino)-3-phenylpropanamido]-2-(4-phenylthiazol-2-yl)ethyl}phenylsulfamic acid] |  |  |  |  |  |  |  |  |  |  |  |  |  | < 2
